Molecular target: T1, USP28 (USP28-5(1-1077)-TEV-6*His; LifeSensors) (Homo sapiens, UniProt Q96RU2)
T1 construct: construct USP28 (USP28-5(1-1077)-TEV-6*His; LifeSensors); TEV cleavage site (C); 6xHis (C); purchased LifeSensors
T1 sequence (Q96RU2 1-1077): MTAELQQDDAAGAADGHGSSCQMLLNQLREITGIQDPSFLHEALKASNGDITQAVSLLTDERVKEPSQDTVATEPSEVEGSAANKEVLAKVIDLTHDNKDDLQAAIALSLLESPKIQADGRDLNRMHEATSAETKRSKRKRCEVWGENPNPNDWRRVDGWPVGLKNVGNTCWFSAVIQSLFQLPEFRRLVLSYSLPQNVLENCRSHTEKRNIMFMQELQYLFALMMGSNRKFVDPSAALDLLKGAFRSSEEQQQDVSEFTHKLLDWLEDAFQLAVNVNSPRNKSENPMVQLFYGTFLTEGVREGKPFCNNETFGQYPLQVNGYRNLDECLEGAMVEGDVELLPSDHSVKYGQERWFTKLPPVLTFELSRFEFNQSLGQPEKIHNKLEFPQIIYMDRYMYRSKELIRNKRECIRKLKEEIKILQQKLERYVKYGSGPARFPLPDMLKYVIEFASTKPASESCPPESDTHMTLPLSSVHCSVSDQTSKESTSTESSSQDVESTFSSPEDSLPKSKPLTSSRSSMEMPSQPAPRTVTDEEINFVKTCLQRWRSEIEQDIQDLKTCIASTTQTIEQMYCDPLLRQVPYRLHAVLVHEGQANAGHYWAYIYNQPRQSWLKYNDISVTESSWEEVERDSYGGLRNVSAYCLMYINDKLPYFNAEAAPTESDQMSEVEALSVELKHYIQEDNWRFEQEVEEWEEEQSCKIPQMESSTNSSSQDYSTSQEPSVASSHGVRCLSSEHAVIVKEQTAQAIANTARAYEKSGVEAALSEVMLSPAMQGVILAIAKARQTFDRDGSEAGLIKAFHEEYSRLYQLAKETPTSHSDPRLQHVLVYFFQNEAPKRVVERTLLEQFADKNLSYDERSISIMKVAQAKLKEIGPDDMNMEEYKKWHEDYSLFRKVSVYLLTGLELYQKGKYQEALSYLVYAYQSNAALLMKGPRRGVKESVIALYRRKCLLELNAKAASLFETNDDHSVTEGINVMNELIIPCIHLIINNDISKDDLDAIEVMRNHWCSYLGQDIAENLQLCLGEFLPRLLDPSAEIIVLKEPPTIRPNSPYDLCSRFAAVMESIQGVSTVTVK
Test: Ubiquitin-Rhodamine 110 Assay for USP28 Activity, Example A-1(b)
Assay type: biochemical
Protocol: Example A-1(b): Biochemical Assay: Ubiquitin-Rhodamine 110 Assay for USP28 Activity
Each assay was performed in a final volume of 20 μL in assay buffer containing 20 mM Tris-HCl (pH 8.0, (1M Tris-HCl, pH 8.0 solution; Corning 46-031-CM)), 2 mM CaCl2 (1M Calcium Chloride solution; Sigma #21114) 2 mM BME (2-Mercaptoethanol; Sigma 63689-25ML-F), 0.01% Prionex (0.22 μM filtered, Sigma #G-0411), and 0.01% Triton X-100. Stock compound solutions were stored at −20° C. as 10 mM in DMSO. Up to 1 month prior to the assay, 2 mM test compounds were pre-dispensed into assay plates (Black, low volume; Corning #3820) and frozen at −20° C. Prestamped assay plates were allowed to come to room temperature on the day of the assay. For the screen, 100 nL of 2 mM was pre-dispensed for a final screening concentration of 10 μM (DMSO(fc)=0.5%). […] Plates were incubated stacked for 90 minutes at room temperature before fluorescence was read on the Envision (Excitation at 485 nm and Emission at 535 nm; Perkin Elmer) or on the PheraSTAR (Excitation at 485 nm and Emission at 535 nm; BMG Labtech).
For follow-up studies, each assay was performed in a final volume of 15 μL in assay buffer containing 20 mM Tris-HCl (pH 8.0, (1M Tris-HCl, pH 8.0 solution; Corning 46-031-CM)), 3 mM BME (2-Mercaptoethanol; Sigma 63689-25ML-F), 0.03% BGG (0.22 μM filtered, Sigma, G7516-25G), and 0.01% Triton X-100 (Sigma, T9284-10L). Nanoliter quantities of either an 8-point or 10-point, 3-fold serial dilution in DMSO was pre-dispensed into assay plates (Perkin Elmer, ProxiPlate-384 F Plus, #) for a final test concentration of either 25 μM to 11 nM or 25 μM to 1.3 nM, respectively. Enzyme USP28, construct USP28 (USP28-5(1-1077)-TEV-6*His; LifeSensors) concentration and incubation times were optimized for the maximal signal-to-background while maintaining initial velocity conditions at a fixed substrate concentration. The final concentration of the enzyme in the assay was […]. Final substrate (Ub-Rh110; Ubiquitin-Rhodamine 110, R&D Systems #U-555) concentration was 25 nM with [Ub-Rh110]<<Km. 5 μL of 2× enzyme was added to assay plates (pre-stamped with compound) preincubated with USP28 for 30 minutes and then 5 μL of 2× Ub-Rh110 was added to assay plates. Plates were incubated stacked for 20 minutes at room temperature before 5 μL of stop solution was added (final concentration of 10 mM citric acid (Sigma, 251275-500G)). Fluorescence was read on the Envision (Excitation at 485 nm and Emission at 535 nm; Perkin Elmer) or on the PheraSTAR (Excitation at 485 nm and Emission at 535 nm; BMG Labtech).
For assay formats Example A-1(a), A-1(b), and A-2, data were reported as percent inhibition compared with control wells based on the following equation: % inh=1−((FLU−AveLow)/(AveHigh−AveLow)) where FLU=measured Fluorescence, AveLow=average Fluorescence of no enzyme control (n=16), and AveHighh=average Fluorescence of DMSO control (n=16). IC50 values were determined by curve fitting of the standard 4 parameter logistic fitting algorithm included in the Activity Base software package: IDBS XE Designer Model 205. Data is fitted using the Levenburg Marquardt algorithm.

| SMILES | USP28 A-1(b) IC50 range |
| --- | --- |
| Cc1ccc2c(N)c(C(=O)N[C@H]3COc4cc(N5CCNCC5)ccc4[C@@H]3C)sc2n1 (single isomer, unassigned) [Example 11-17] | + (“+”L>2 μM) |
| Cc1ccc2c(N)c(C(=O)N[C@H]3COc4cc(N5CCNCC5)ccc4[C@H]3C)sc2n1 (single isomer, unassigned) [Example 11-15] | + (“+”L>2 μM) |
| Cc1ccc2c(N)c(C(=O)N[C@H]3CCc4c(C#N)c(N5CCNCC5)cc(F)c4C3)sc2n1 (single isomer, unassigned) [Example 14-10] | +++ (“+++”: 0.05-0.2 μM) |
| Cc1cnc2c(N)c(C(=O)N[C@H]3CCc4cc(N5CCNCC5)cc(F)c4C3)sc2n1 (single isomer, unassigned) [Example 11-38] | +++ (“+++”: 0.05-0.2 μM) |
| Cc1ccc2c(N)c(C(=O)N[C@H]3COc4cc(N5CCNCC5)ccc4[C@@H]3C)sc2n1 (single isomer, unassigned) [Example 11-16] | + (“+”L>2 μM) |
| Cc1ccc2c(N)c(C(=O)N[C@@H]3COc4cc(N5CCNCC5)ccc4[C@@H]3C)sc2n1 (single isomer, unassigned) [Example 11-18] | + (“+”L>2 μM) |
| Cc1ccc2c(N)c(C(=O)N[C@H]3CCc4cc(N5CCNCC5)ccc4C3)sc2n1 (single isomer, unassigned) [Example 11-21] | ++ (“++”: 0.2-2 μM) |
| Cc1nc2sc(C(=O)N[C@@H]3CCc4cc(N5CCNCC5)ccc4C3)c(N)c2s1 (single isomer, unassigned) [Example 11-34] | ++ (“++”: 0.2-2 μM) |
| Cc1ccc2c(N)c(C(=O)N[C@@H]3CCc4cc(N5CC6CNCC(C5)O6)cc(F)c4C3)sc2n1 (single isomer, unassigned) [Example 11-40] | ++++ (“++++”: 0.001-0.05 μM) |
| Cc1cnc2c(N)c(C(=O)N[C@H]3CCc4c(ccc(N5CCNCC5)c4F)C3)sc2n1 (single isomer, unassigned) [Example 21-10] | + (“+”L>2 μM) |
| Cc1cnc2c(N)c(C(=O)N[C@@H]3CCc4cc(N5CCNCC5)cc(F)c4C3)sc2n1 (single isomer, unassigned) [Example 11-37] | + (“+”L>2 μM) |
| Cc1cnc2c(N)c(C(=O)N[C@H]3CCc4cc(N5C[C@@H]6C[C@H]5CN6)ccc4C3)sc2n1 (single isomer, unassigned) [Example 11-29] | ++ (“++”: 0.2-2 μM) |
| Cc1cnc2c(N)c(C(=O)N[C@@H]3CCc4c(ccc(N5CCNCC5)c4F)C3)sc2n1 (single isomer, unassigned) [Example 21-9] | ++ (“++”: 0.2-2 μM) |
| Cc1cnc2c(N)c(C(=O)N[C@H]3CCc4cc(N5C[C@H]6C[C@@H]5CN6)ccc4C3)sc2n1 (single isomer, unassigned) [Example 11-31] | ++ (“++”: 0.2-2 μM) |
| Cc1cnc2c(N)c(C(=O)N[C@@H]3CCc4cc(N5CCNCC5)ccc4C3)sc2n1 (single isomer, unassigned) [Example 11-20] | + (“+”L>2 μM) |
| Cc1cnc2c(N)c(C(=O)N[C@@H]3CCc4cc(N5CCNCC5)c(F)cc4C3)sc2n1 (single isomer, unassigned) [Example 21-11] | ++ (“++”: 0.2-2 μM) |
| Cc1cnc2c(N)c(C(=O)N[C@@H]3CCc4cc(N5C[C@@H]6C[C@H]5CN6)ccc4C3)sc2n1 (single isomer, unassigned) [Example 11-30] | ++ (“++”: 0.2-2 μM) |
| CN[C@@H]1CCN(c2ccc3c(c2)CC[C@H](NC(=O)c2sc4nc(C)cnc4c2N)C3)C1 (single isomer, unassigned) [Example 11-27] | ++ (“++”: 0.2-2 μM) |
| Cc1cnc2c(N)c(C(=O)N[C@@H]3CCc4cc(N5C[C@H]6C[C@@H]5CN6)ccc4C3)sc2n1 (single isomer, unassigned) [Example 11-32] | ++ (“++”: 0.2-2 μM) |
| Cc1cnc2c(N)c(C(=O)N[C@H]3CCc4cc(N5CCNCC5)c(F)cc4C3)sc2n1 (single isomer, unassigned) [Example 21-12] | ++++ (“++++”: 0.001-0.05 μM) |
| Cc1cnc2c(N)c(C(=O)N[C@H]3CCc4cc(N5CCNCC5)ccc4C3)sc2n1 (single isomer, unassigned) [Example 11-19] | ++ (“++”: 0.2-2 μM) |
| Cc1ccc2c(N)c(C(=O)N[C@@H]3CCc4c(C#N)c(N5CCNCC5)cc(F)c4C3)sc2n1 (single isomer, unassigned) [Example 14-9] | + (“+”L>2 μM) |
| CN[C@H]1CCN(c2ccc3c(c2)CC[C@H](NC(=O)c2sc4nc(C)cnc4c2N)C3)C1 (single isomer, unassigned) [Example 11-25] | ++ (“++”: 0.2-2 μM) |
| CN[C@H]1CCN(c2ccc3c(c2)CC[C@@H](NC(=O)c2sc4nc(C)cnc4c2N)C3)C1 (single isomer, unassigned) [Example 11-26] | + (“+”L>2 μM) |
| Cc1ccc2c(N)c(C(=O)N[C@@H]3CCc4cc(N5CCNCC5)ccc4C3)sc2n1 (single isomer, unassigned) [Example 11-22] | ++ (“++”: 0.2-2 μM) |
| CN[C@@H]1CCN(c2ccc3c(c2)CC[C@@H](NC(=O)c2sc4nc(C)cnc4c2N)C3)C1 (single isomer, unassigned) [Example 11-28] | + (“+”L>2 μM) |
| Cc1ccc2c(N)c(C(=O)N[C@H]3CCc4cc(N5CC6CNCC(C5)O6)cc(F)c4C3)sc2n1 (single isomer, unassigned) [Example 11-39] | ++ (“++”: 0.2-2 μM) |
| Cc1nc2sc(C(=O)N[C@H]3CCc4cc(N5CCNCC5)ccc4C3)c(N)c2s1 (single isomer, unassigned) [Example 11-33] | + (“+”L>2 μM) |

From US12162888B2, “Carboxamides as ubiquitin-specific protease inhibitors” (Valo Early Discovery, Inc., priority 2018, dated 2024)
